Test results reported in ChEMBL document CHEMBL1125655 (J Med Chem, 1991).

Test: pKa value of the compound
Type: physicochemical

Work on `CN1CC[C@]23c4c5ccc(O)c4O[C@H]2[C@@H](O[C@@H]2O[C@H](C(=O)O)[C@@H](O)[C@H](O)[C@H]2O)C=C[C@H]3[C@H]1C5` (stereo in doubt; form 1) [MORPHINE GLUCURONIDE] yielded a pKa of 3.23.
